Measurements reported in patent publication US7847152B2, “Use of tryptophan indole and anthranilate analogs as plant transformation selection agents” (The Board of Trustees of the University of Illinois, priority 2006, dated 2010).

What was measured:
[1] = test system: tobacco shoot producing leaf discs; assay: Discrimination between wild type and ASA2 expressing tobacco shoot producing leaf discs; assay type: cell-based
Description: Various concentrations of the different analogs were tested on maize, soy bean, and tobacco that includes growth inhibition test of germination, leaf callus formation test, and other growth inhibition tests (FIGS. 15-38).
Leaf callus/shoot formation was studied on Tobacco Regeneration Medium that was MS basal medium with 88 μM 6-benzyladenine (BA) and 0.5 μM naphthalene acetic acid (NAA) and various concentrations of different Trp and indole analogs using a total of 30 leaf discs (6 mm each in diameter) from either the untransformed wild type (WT) tobacco or the ASA2 expressing transgenic line transformed with pAST-IV vector (line ASTIV) at 28° C. under fluorescent light as described above. Callus formation and shoot production was visually evaluated after 2, 4 and 6 weeks. Seedling growth inhibition was studied as described herein.

[2] = test system: Arabidopsis germinating seedlings; assay: Discrimination between wild type and ASA2 expressing Arabidopsis germinating seedlings; assay type: in vivo; conditions: Arabidopsis seeds

## Nc1ccc(F)cc1C(=O)O [5FA]
[1]
  concentration for discriminating between wild type and ASA2 expressing tobacco shoot producing leaf discs: 5FA 150 μM

## Cc1ccc2[nH]cc(C[C@H](N)C(=O)O)c2c1 [5MT, 5-methyltrypthophan]
[2]
  concentration for discriminating between wild type and ASA2 expressing Arabidopsis germinating seedlings: 5MT 200 μM

## COc1ccc2[nH]ccc2c1 [5MI, 5-Methoxyindole]
[1]
  concentration for discriminating between wild type and ASA2 expressing tobacco shoot producing leaf discs: 5MI 1000 μM

## CC(=O)c1c[nH]c2ccccc12 [3-acetylI]
[1]
  concentration for discriminating between wild type and ASA2 expressing tobacco shoot producing leaf discs: 3-acetylI 500 μM

## Fc1cccc2[nH]ccc12 [4FI, 4-Fluoroindole]
[2]
  concentration for discriminating between wild type and ASA2 expressing Arabidopsis germinating seedlings: 4FI 70 μM

## COc1cccc2cc[nH]c12 [7MI, 7-Methoxyindole]
[1]
  concentration for discriminating between wild type and ASA2 expressing tobacco shoot producing leaf discs: 7MI 1000 μM

## Cc1cccc(N)c1C(=O)O [6MA, 6-methylanthranilate]
[1]
  concentration for discriminating between wild type and ASA2 expressing tobacco shoot producing leaf discs: 6MA 70 μM

## N[C@@H](Cc1c[nH]c2ccc(O)cc12)C(=O)O [5HT, 5-hydroxyl-L-tryptophan]
[2]
  concentration for discriminating between wild type and ASA2 expressing Arabidopsis germinating seedlings: 5HT 200 μM

## Cc1ccc(N)c(C(=O)O)c1 [5MA, 5-methylanthranilate]
[1]
  concentration for discriminating between wild type and ASA2 expressing tobacco shoot producing leaf discs: 5MA 800 μM

## Fc1ccc2[nH]ccc2c1 [5FI, 5-Fluoroindole]
[2]
  concentration for discriminating between wild type and ASA2 expressing Arabidopsis germinating seedlings: 5FI 20 μM

## Cc1cccc2[nH]cc(C[C@H](N)C(=O)O)c12 [4MT, 4-methyltrypthophan]
[2]
  concentration for discriminating between wild type and ASA2 expressing Arabidopsis germinating seedlings: 4MT 70 μM

## C[C@](N)(Cc1c[nH]c2ccccc12)C(=O)O [α-MT, α- methyltrypthophan]
[2]
  concentration for discriminating between wild type and ASA2 expressing Arabidopsis germinating seedlings: α-MT 20 μM
